From patent publication US9551036B2, “Metabolic gene mesenchymal signatures and uses thereof” (Whitehead Institute for Biomedical Research, priority 2013, dated 2017)
“Also recorded” adds a separate entry of the source.

Columns and labels:
[1] = system: HMLE-Twist-ER cells; test: in vitro mammosphere formation assay; assay type: cell-based, human; details: HMLE-Twist-ER cells expressing shDPYD_1, exogenous addition of metabolite
Protocol: 500 cells/well were seeded in 96-well ultra-low adhesion plates (Corning, 3474) in MammoCult Basal Medium (Stem Cell Technology, 05621) containing 2.6% methylcellulose (Stem Cell Technology, H4100) and 10% MammoCult Proliferation Supplements (Stem Cell Technology, 05621), supplemented with 0.5 μg/ml hydrocortisone, 4 μg/ml Heparin and Pen/strep. Spheres were counted 12-14 days later.

[2] = system: HMLE-Twist-ER cells; test: LC-MS measurement of cellular DHU and uracil; assay type: cell-based, human; details: OHT treatment of HMLE-Twist-ER cells, 15 days time course
Protocol: Solvents were obtained from Fisher Scientific and were Optima LC/MS grade except where otherwise specified. Cells grown in standard tissue culture plates (500,000 cells per sample) were washed twice in an ice-cold solution of 0.9% NaCl in deionized water, followed by extraction on dry ice in 1 mL 80% methanol containing 10 ng/mL phenylalanine-d8 and valine-d8 (Sigma-Aldrich) as internal standards. The cell mixtures were shaken vigorously on a Vortex mixer for 10 min. at 4° C., vacuum-dried, and resuspended in 100 μL LC/MS grade water (Fisher). These extracts were then centrifuged at 15,000×g at 4° C. for 10 min, and the supernatants were passed through a cellulose acetate particulate filter (National Scientific). […]
The UPLC system was coupled to a QExactive orbitrap mass spectrometer equipped with a HESI II probe (Thermo Fisher Scientific) operating in positive ion mode. […] Quantitation of the data was performed with XCalibur QuanBrowser 2.2 (Thermo Fisher Scientific) using a 5 ppm mass tolerance, by a researcher blinded to the identity of the samples. Pure thymine (T0376), and uracil (U1128) were obtained from Sigma-Aldrich and dihydrothymine (L01996), and dihydrouracil (L01918) were obtained from Alfa Aesar and were run in half-log serial dilution (3 nM-100 μM) to confirm chromatographic retention times and generate standard curves for quantitation of each analytical batch.

Compound | rescue of mammosphere formation [1] | increase of cellular DHU/uracil molar ratio [2]
O=c1cc[nH]c(=O)[nH]1 [uracil] | significantly smaller effect | 
O=C1CCNC(=O)N1 [DHU, dihydrouracil] | more strongly than uracil; also recorded: dose-dependent rescue of mammosphere formation | 
CC1CNC(=O)NC1=O (stereo not shown) [DHT, dihydrothymine] | dose-dependent rescue of mammosphere formation | 
4-hydroxytamoxifen [OHT] |  | 5 fold
